Tested on: OCI-LY3 cells
Experiment: Resazurin cell viability (proliferation) assay in OCI-LY3 DLBCL cells
Assay type: cell-based
Conditions: Homo sapiens, OCI-LY3 cells (BTK independent), 72 h, 50% growth inhibition vs vehicle, read-out: OCI-LY3 Prol GI50
Outline: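 Cells were seeded at 1×10^4 per well and dosed 3 h later: 8-point 1:4 dilutions from 10 μM (OCI-LY3), in triplicate, 72 h at 37 °C. Resazurin (13 μg/ml final) was added for the last 2 h and fluorescence read at 530/600 nm. GI50 is relative to DMSO vehicle, typically from ≥2 independent experiments.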

Row | GI50 | SMILES
1 | 7.9 µM | COc1ccc(C(=O)N2CCC3(CC2)CCN(C(C)(C)Cc2ccc(-c4cc5c(-c6cc(F)cc(NC(=O)c7ccc(C(C)(C)O)cc7F)c6C)ncnc5[nH]4)cc2)CC3)cc1N1CCC(=O)NC1=O [Compound 20, N-(3-(6-(4-(2-(9-(3-(2,4-Dioxotetrahydropyrimidin-1(2H)-yl)-4-methoxybenzoyl)-3,9-diazaspiro[5.5]undecan-3-yl)-2-methylpropyl)phenyl)-7H-pyrrolo[2,3-d]pyrimidin-4-yl)-5-fluoro-2-methylphenyl)-2-fluoro-4-(2-hydroxypropan-2-yl)benzamide]
2 | 5.64 µM | COc1ccc(C(=O)N2CCC3(CCN(CCc4ccc(-c5cc6c(-c7cc(F)cc(NC(=O)c8ccc(C(C)(C)O)cc8F)c7C)ncnc6[nH]5)cc4)CC3)CC2)cc1N1CCC(=O)NC1=O [Compound 31, N-(3-(6-(4-(2-(9-(3-(2,4-Dioxotetrahydropyrimidin-1(2H)-yl)-4-methoxybenzoyl)-3,9-diazaspiro[5.5]undecan-3-yl)ethyl)phenyl)-7H-pyrrolo[2,3-d]pyrimidin-4-yl)-5-fluoro-2-methylphenyl)-2-fluoro-4-(2-hydroxypropan-2-yl)benzamide]
